The text below walks through data of patent publication US20140120166A1, “COMPOSITION OF ENTACOPONE” (INNOPHARMAX, INC., priority 2011, published 2014).

The nature of this series: Dissolution test (FDA dissolution method for entacapone, USP paddle apparatus, HPLC analysis). It counts as physicochemical. Particulars: USP standard paddle stirring apparatus, 50 rpm, 900 mL pH 5.5 phosphate buffer solution, 120 minutes. As for the experimental part:
The dissolution test was conducted according to the drug dissolution method for entacapone obtained by searching the Dissolution Methods Database provided on the FDA website (http://www.accessdata.fda.gov/scripts/cder/dissolution/dsp_Search Results_Dissolutions.cfm). The dissolution test was carried out using a USP standard paddle stirring apparatus with a rotation speed of 50 rpm. The solvent used was 900 mL pH 5.5 phosphate buffer solution and the period of test was 120 minutes.

For `CCN(CC)C(=O)/C(C#N)=C/c1cc(O)c(O)c([N+](=O)[O-])c1` [entacapone, (E)-2-cyano-3-(3,4-dihydroxy-5-nitro-phenyl)-N,N-diethyl-2-propenamide], the “Dissolution Rate (%)” value is reported as “about 81.15%”.
